Test [1] concerns OV-Q1. The test is described as follows: Viral replication inhibition assay (HSV-1 genome copies by real-time PCR). The note with it: Human alphaherpesvirus 1, GLI36, 48 h, read-out: IC50 of inhibition of OV-Q1 replication. The test is classed as cell-based. As for the experimental part:
(§1) FIGS. 12A-12B illustrate the safety test for OV-CDH1. FIG. 12(A) illustrates that Gli36 cells were infected with OV-Q1 or OV-CDH1 at a MOI of 5. Two hours after infection, the infection media were replaced with fresh media with increasing concentrations of Acyclovir. Forty-eight hours after infection, the cells were harvested for DNA extraction. The HSV-1 genome copy numbers in OV-Q1 and OV-CDH1 infected cells were measured by real-time PCR with primers and a probe against gD. The copy number vs. dose curves were established to evaluate the inhibitory effect of Acyclovir against oHSV replication (n=3). FIG. 12(B) illustrates survival curves of BLAB/c mice treated with wild-type HSV-1 (F strain), OV-Q1 or OV-CDH1 at the dose of 1×10^6 via i.c. or i.v injections.
(§2) OV-Q1 and OV-CDH1 both carry the HSV-1 TK gene, which makes the viruses sensitive to the antiviral acyclovir and its derivatives. […] For evaluating the in vivo safety of OV-CDH1, BALB/c mice were intravenously (i.v.) or i.c. injected with wild-type HSV-1 (F strain), OV-Q1, or OV-CDH1 at the dose of 1×10^6 PFU, which is the maximum dose due to the limited administration volume for i.c. injection. […] Mice treated with OV-Q1 and OV-CDH1 through i.v. or i.c. injections all survived over 4 weeks until they were euthanized and not monitored further (FIG. 12B). […]
(In general: Real-time PCR tracks product formation cycle by cycle.)

Test [2] deals with OV-CDH1. The test is described as above. It is filed as cell-based. The note with it: Human alphaherpesvirus 1; Gli36 cells, MOI of 5, 48 h. As for the experimental part: as §1, §2

As to `Nc1nc2c(ncn2COCCO)c(=O)[nH]1` [acyclovir], the IC50 in test [1] was 1670 nM; in test [2], 2670 nM.

As usually defined, the IC50 is the concentration at which inhibition is half-maximal.

The values are drawn from patent publication US20230242887A1, “ONCOLYTIC VIRUS CARRYING E-CADHERIN AND USES THEREOF” (Ohio State Innovation Foundation, priority 2017, published 2023).
